Experimental findings from US12679838B2, “Aromatic compound and application thereof in antitumor drug” (Shanghai Zheye Biotechnology Co., Ltd., priority 2020, dated 2026) are described below.

The target of data set [1] is T1, hERG potassium channel (Homo sapiens, UniProt Q12809).
T1 construct: expressed in transfected cells; host or cells: HEK-293
Briefly: hERG potassium channels, electrophysiological manual patch clamp. It is filed as cell-based. Here is the method: Preparation of test solution: the solution of test compound 3-16M was subjected to conventional ultrasound and oscillation to ensure complete dissolution of the compound.
Cell culture: the cell lines were derived from HEK-293 cells which overexpressed hERG potassium channel. The cells were cultured in a 5% CO2 incubator at 37°. When a cell density reached 80% of a culture dish, the cells were pre-washed with a phosphate buffer solution (PBS), and then digested with trypsin/EDTA, and a cell culture medium was added to stop digestion. The cells were gently blown with a pipette and transferred to a centrifuge tube, centrifuged at 1000 rpm, the supernatant was poured out, and then the cell culture medium was added. The cells were gently blown and mixed evenly, then transferred to a culture dish for subculture, or the cells were dripped on a round slide and placed in a culture dish for the cells to adhere to the wall for test.
The hERG IC50 value of the compound calculated by electrophysiology manual patch clamp system test was as follows: […]

Data set [2] has as its system NCI-H358 cells. As to the kind of experiment: Cell proliferation inhibitory activity, NCI-H358 (CellTiter-Glo). Format: cell-based. To be noted: for IC50: Homo sapiens. Here is the method:
(§1) NCI-H358 cells in an exponential growth phase were digested with trypsin-EDTA and plated in a 96-well plate at 2000-3000 cells per well and incubated overnight at 37° C. with 5% CO2. A test compound was prepared as a mother liquor with DMSO, diluted with a RPMI 1640 growth medium in a concentration gradient and added to the 96-well plate and incubated for 72 hours at 37° C. in a 5% CO2 incubator. After incubation, an equal volume of CellTiter-Glo detection reagent was added to each well and incubated after shaking, and a chemiluminescence value was measured by a microplate reader, and the IC50 value for the inhibition of NCI-H358 cell proliferation was fitted and calculated by GraphPad Prism software.
The inhibitory effect of the compounds on the proliferation activity of H358 cells was tested with reference to the method of the biological test 2, and the results were as follows:
The inhibitory effect of the compounds on the proliferation activity of NCI-H358 cells was tested with reference to the method of the biological test 2, and the results were as follows.
Background: Cellular ATP, detected with luciferase, serves as a proxy for viable cell number.

The test system of data set [3] is NCI-H358. Briefly: Cell proliferation inhibitory activity of NCI-H358, 3D model test (agarose colony formation). It is filed as cell-based. To be noted: for IC50: Homo sapiens, NCI-H358, agarose gel, colony formation, NBT staining. Here is the method: 100 μl of high concentration agarose gel was spread in a 96-well plate as a bottom agarose gel layer; low concentration agarose and growth medium containing cells were mixed and spread on the bottom agarose gel layer, cooled and solidified and incubated overnight at 37° C.; a test compound was prepared into a mother liquor with DMSO, diluted with a RPMI 1640 growth medium in a concentration gradient, and the gradient diluted solution of the compound to be tested with different concentrations was added into 96 wells containing upper agarose gel cells, and solvent control wells were set and placed in a carbon dioxide incubator for culture. During the period, the drug-containing medium was changed to observe the cell growth. After the culture, the cells were stained with NBT, the number of colony formation was counted, and the IC50 value of the compound inhibiting cell proliferation was obtained.

Data set [4] relates to NCI-H358 tumor cells xenograft. As to the kind of experiment: Pharmacodynamics test of xenograft tumor model of NCI-H358 in nude mice. To be noted: 100 mg/kg; for Tumor suppression ratio (%): NCI-H358 xenograft, QD×15 days, oral gavage. It is filed as in vivo, Balb/c Nude mice. The procedure: Animal species and number: Balb/c Nude; 6 animals per group.
Samples for testing: compound 3-2M, compound 3-16M, TM-1, TM-3, and AMG510 (obtained by purchasing).
Test groups: blank solvent control group; compound 3-2M (100 mg/kg, QD×15 days), compound 3-16M (100 mg/kg, QD×15 days), TM-1 (100 mg/kg, QD×15 days), TM-3 (100 mg/kg, QD×15 days); and AMG510 (100 mg/kg, QD×15 days).
Animal model establishment: NCI-H358 tumor cells at logarithmic phase were cultured and collected in vitro, and inoculated subcutaneously on the right side of the back of nude mice at a quantity of 5×10^6 cells/each, and the tumor-bearing nude mice were randomly grouped when the tumor volume grew to 150-300 mm^3. Subsequently, each group of animals was administered and the day of the first administration was defined as day 1 of the test.
(§2) Administration route and frequency: oral gavage; and once a day.
General state observation: observation time and frequency: once a day; observation index or content: including, but is not limited to local administration, appearance and signs, general behavioral activities, mental status, death and other abnormal manifestations of the animals. The animals were euthanized at the end of the test.
Tumor volume calculation: V=½×long diameter× short diameter^2 (mm^3). Tumor growth inhibition ratio TGI (%) was used to evaluate the tumor suppressive efficacy of the compounds. TGI (%)=[1-(mean tumor volume at the end of administration of the treatment group−mean tumor volume at the beginning of administration of the treatment group)/(mean tumor volume at the end of administration of the control group−mean tumor volume at the beginning of administration of the control group)]×100%.

Data set [5] can be described thus: Two-week repeated dosing safety test. Format: in vivo. To be noted: SD rats, 400 mg/kg oral gavage once a day, 14 days. The procedure: Samples for testing: compound 3-29; compound 3-16M; and compound 3-32.
Animal species and number: SD rats; 6 rats per group (half male and half female).
(§3) Mode of administration: oral gavage.
Animal grouping and administration dose: solvent blank group and compound 3-29 group (400 mg/kg); compound 3-16M group (400 mg/kg); and compound 3-32 group (400 mg/kg).
Administration frequency: once a day, and administration for 14 days.
After administration, a toxic reaction was observed by cages for 4 hours, and detailed clinical observation was made on animals with obvious abnormal performances. General clinical observation included twice a day during the duration of test (once in the morning and once in the afternoon). Death, morbidity, respiration, secretion, faeces, diet, drinking water, and other conditions were observed and weight changes of the rats during administration were recorded. Detailed clinical observations included but were not limited to behavioral activity, skin, coat, eyes, ears, nose, abdomen, external genitals, anus, extremities, feet, and respiration. After the administration, the animals in each group were euthanized, and all the animals were dissected and observed grossly.

Data set [6] deals with MIA-paca-2 cells subcutaneous transplanted tumor. As to the kind of experiment: Pharmacodynamic test of CDX model in nude mice. It is filed as in vivo. To be noted: 10 mg/kg, QD×15 days. The procedure: Animal species and number: Balb/c Nude.
Test groups: blank solvent control group; compound 3-2M (10 mg/kg, QD×15 days), and compound 3-6M (10 mg/kg, QD×15 days).
Animal model establishment: MIA-paca-2 cells were cultured in vitro and inoculated subcutaneously on the right side of the back of nude mice, and the tumor-bearing nude mice were randomly grouped. Subsequently, each group of animals was administered and the day of the first administration was defined as day 1 of the test.
as §2
General state observation: observation time and frequency: once a day; observation index or content: including, but not limited to local administration, appearance and signs, general behavioral activities, mental status, death and other abnormal manifestations of the animals. The animals were euthanized at the end of the test.
Tumor volume calculation: V=½×long diameter×short diameter^2 (mm^3). Tumor growth inhibition ratio TGI (%) was used to evaluate the tumor suppressive efficacy of the compounds. TGI (%)=[1-(mean tumor volume at the end of administration of the treatment group−mean tumor volume at the beginning of administration of the treatment group)/(mean tumor volume at the end of administration of the control group−mean tumor volume at the beginning of administration of the control group)]×100%.

Data set [7] in a line: Preliminary safety test of compounds, 3-day oral gavage. To be noted: mouse, in vivo, Balb/c, tentatively suggested, read-out: maximum tolerated dose. The procedure: Samples for testing: compound 3-2M and compound 3-6M.
Animal species and number: Balb/c; 3 animals per group.
as §3
Animal grouping and administration dose: solvent blank group and compound 3-2M group (400 mg/kg, 800 mg/kg); compound 3-6M group (400 mg/kg, 800 mg/kg).
Administration frequency: once a day, and administration for 3 days.

The test system of data set [8] is MIA PaCa-2 cells. Briefly: Cell proliferation inhibitory activity, MIA PaCa-2 (CellTiter-Glo). It is filed as cell-based. Here is the method:
as §1, with “MIA PaCa-2” for “NCI-H358”, “DMEM” for “RPMI 1640”

Data set [9] is described as follows: Analysis of therapeutic safety window. To be noted: in vivo, oral, 3 days.
The test system of data set [10] is Langendorff isolated perfused heart. Briefly: In vitro isolated heart perfusion test (Langendorff). Also noted: species or system Guinea pig. To be noted: 3.3 μM. From the text:
Test method: influences of Langendorff isolated perfused heart test compounds on electrocardiogram, wherein the test method used in this test was as follows: [table] Test compounds: compound 3-2M and the compound in Example 41 of patent WO2018217651A1 (i.e., AMG510).

Setting [11] is: NCI-H358, 72 h, biological test 2, NCI-H358 cells, 72 hours, read-out: Cell proliferation inhibitory activity IC50 value of H358.

Molecules are shown by their SMILES. Read-outs that look alike come from different tables or passages of the source.

T1 sequence (Q12809 whole entry): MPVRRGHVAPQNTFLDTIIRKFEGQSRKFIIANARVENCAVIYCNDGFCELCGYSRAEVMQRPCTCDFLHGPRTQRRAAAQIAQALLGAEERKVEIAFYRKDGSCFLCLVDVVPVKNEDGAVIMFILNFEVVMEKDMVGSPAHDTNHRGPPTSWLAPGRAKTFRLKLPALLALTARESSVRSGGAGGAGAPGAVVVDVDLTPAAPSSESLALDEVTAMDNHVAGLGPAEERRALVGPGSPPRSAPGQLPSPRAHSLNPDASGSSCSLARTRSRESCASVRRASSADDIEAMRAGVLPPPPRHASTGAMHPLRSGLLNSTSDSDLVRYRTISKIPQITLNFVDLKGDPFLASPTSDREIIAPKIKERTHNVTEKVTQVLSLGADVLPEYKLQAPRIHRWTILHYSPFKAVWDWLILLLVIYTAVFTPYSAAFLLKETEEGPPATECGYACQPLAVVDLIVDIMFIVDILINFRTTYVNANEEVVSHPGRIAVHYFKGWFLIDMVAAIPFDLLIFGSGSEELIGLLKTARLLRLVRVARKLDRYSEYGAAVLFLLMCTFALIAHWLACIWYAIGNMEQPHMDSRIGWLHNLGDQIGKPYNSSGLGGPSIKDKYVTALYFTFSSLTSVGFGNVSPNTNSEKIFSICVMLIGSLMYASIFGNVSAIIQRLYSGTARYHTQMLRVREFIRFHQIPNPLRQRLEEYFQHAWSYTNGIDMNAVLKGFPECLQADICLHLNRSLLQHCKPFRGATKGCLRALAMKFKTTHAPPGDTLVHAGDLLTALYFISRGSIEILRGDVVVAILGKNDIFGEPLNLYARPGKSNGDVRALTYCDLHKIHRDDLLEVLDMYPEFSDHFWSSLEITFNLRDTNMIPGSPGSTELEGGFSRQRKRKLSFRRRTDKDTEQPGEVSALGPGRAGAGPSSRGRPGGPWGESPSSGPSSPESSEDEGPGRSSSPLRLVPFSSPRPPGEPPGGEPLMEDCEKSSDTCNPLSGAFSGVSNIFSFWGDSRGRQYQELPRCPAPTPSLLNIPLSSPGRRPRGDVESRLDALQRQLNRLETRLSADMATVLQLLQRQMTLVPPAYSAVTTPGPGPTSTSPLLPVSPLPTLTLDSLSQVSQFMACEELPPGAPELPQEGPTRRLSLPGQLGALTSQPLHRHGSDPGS

For the compound `[2H]C(=O)c1ccccc1-c1nc2c(cc1Cl)c(N1CCN(C(=O)C=C)C[C@@H]1C)nc(=O)n2-c1c(C)ccnc1C(C)C` (atropisomer, axis not shown) [Compound 3-16M], the IC50 in [1] (HEK-293 cells overexpressing hERG) was more than 100000 nM; in [1] (human, HEK-293 cells overexpressing hERG potassium channel, test concentration range) it was more than 100000 nM; in [2] (setting [11]), not above 50 nM; in [3], 1.1 nM. Also, the “cell proliferation inhibitory activity against KRAS G12C mutant cells NCI-H358 (in words)” value in [2] is recorded as “significant cell proliferation inhibitory activities”. In addition, the “cell proliferation inhibitory activity against NCI-H358, 3D model (in words)” value in data set [3] is listed as “significant cell proliferation inhibitory activities”. In [4], the “inhibition of subcutaneous transplanted tumor growth of lung cancer NCI-H358 cells in nude mice (in words)” value was “significant inhibitory effects”. In addition, in [4], the “Tumor suppression ratio (%)” value is “++++ (“++++” represents that the tumor suppression ratio is greater than 140%)”. Also, the “general observation: water intake, feeding, activity, body weight” value (“general observation: water intake” below) in data set [5] is reported as “no obvious abnormal performance”.
For `C=CC(=O)N1CCN(c2nc(=O)n(-c3c(C)ccnc3C(C)C)c3nc(-c4c(F)cccc4C=O)c(Cl)cc23)[C@@H](C)C1` (single isomer, unassigned) [Compound 3-6M], the “inhibition of subcutaneous transplanted tumor growth of pancreatic cancer MIA-paca-2 cells in nude mice (in words)” value in [6] is recorded as “significant inhibition of subcutaneous transplanted tumor growth”. Moreover, the “toxicity during administration in CDX test (food and water intake, activities, weight)” value in data set [6] is given as “showed no toxicity”. In addition, in data set [7], the MTD at 3 days was more than 800 mg/kg. Further, the “cell proliferation inhibitory activity against KRAS G12C mutant cells NCI-H358 (in words)” value in data set [2] was “significant cell proliferation inhibitory activities”. In data set [2] (H358), the “cell proliferation inhibitory activity, R-configuration compared with corresponding S-configuration compound (in words)” value is recorded as “significantly better than that of the corresponding compound 3-6P”. Further, the IC50 in [2] (setting [11]) is not above 50 nM; in [8] (Homo sapiens, MIA PaCa-2 cells, 72 hours), less than 50 nM. Further, in [8], the “cell proliferation inhibitory activity against KRAS G12C mutant cells MIA PaCa-2 (in words)” value is listed as “significant cell proliferation inhibitory activities”. Moreover, in data set [9], the “therapeutic safety window: ratio of toxic dose to onset dose” value is “greater than 80 times”.
As to `C=CC(=O)N1CCN(c2nc(=O)n(-c3c(C)ccnc3C(C)C)c3nc(-c4c(O)cccc4F)c(F)cc23)[C@@H](C)C1` [AMG510, reference compound], the “effect on the heart rate of the isolated heart (in words)” value in data set [10] is “significant effect on reducing the heart rate”. In addition, the “HR (heart rate) change %” value in data set [10] (Guinea pig isolated heart) is “C (“C” represents that the heart rate decreases by greater than or equal to 15%)”. The IC50 in data set [3] stood at 9.3 nM. Also, the “Tumor suppression ratio (%)” value in [4] is “+++ (“+++” represents that the tumor suppression ratio is between 101% and 140%)”.
As to `C=CC(=O)N1CCN(c2nc(=O)n(-c3c(CF)ccnc3C(C)C)c3nc(-c4ccccc4C=O)c(Cl)cc23)[C@@H](C)C1` [Compound 3-29], in data set [2], the “cell proliferation inhibitory activity against KRAS G12C mutant cells NCI-H358 (in words)” value is listed as “significant cell proliferation inhibitory activities”. Also, the IC50 in [2] (biological test 7, NCI-H358 cells, read-out: Cell proliferation inhibitory activity IC50 value of NCI-H358) was less than 50 nM. Moreover, the “general observation: water intake” value in data set [5] is “no obvious abnormal performance”.
Consider `C=CC(=O)N1CCN(c2nc(=O)n(-c3c(CN(C)C)ccnc3C(C)C)c3nc(-c4ccccc4C=O)c(Cl)cc23)[C@@H](C)C1` [Compound 3-32], for which the “cell proliferation inhibitory activity against KRAS G12C mutant cells NCI-H358 (in words)” value in data set [2] is “significant cell proliferation inhibitory activities”. Moreover, in data set [2] (NCI-H358, biological test 7, NCI-H358 cells, read-out: Cell proliferation inhibitory activity IC50 value of NCI-H358), the IC50 is less than 50 nM. In addition, the “general observation: water intake” value in [5] was “no obvious abnormal performance”.
